Source: patent US20200207734A1, “HETEROCYCLIC COMPOUND AND USE THEREOF” (Takeda Pharmaceutical Company Limited, priority 2017, published 2020)

Key:
[1] = target: T1, human orexin type 2 receptor (Homo sapiens, UniProt O43614); assay: Measurement of orexin type 2 receptor agonist activity (calcium fluorescence, CHO cells expressing hOX2R); format: cell-based; settings: test compound 3 μM; CHO cells expressing human OX2 receptor; DMSO = 0%, orexin A (human) = 100%
T1 construct: human orexin type 2 receptor cDNA was inserted into pcDNA3.1(+) plasmid vector (Invitrogen); expressed in transfected cells
T1 sequence (O43614 1-444): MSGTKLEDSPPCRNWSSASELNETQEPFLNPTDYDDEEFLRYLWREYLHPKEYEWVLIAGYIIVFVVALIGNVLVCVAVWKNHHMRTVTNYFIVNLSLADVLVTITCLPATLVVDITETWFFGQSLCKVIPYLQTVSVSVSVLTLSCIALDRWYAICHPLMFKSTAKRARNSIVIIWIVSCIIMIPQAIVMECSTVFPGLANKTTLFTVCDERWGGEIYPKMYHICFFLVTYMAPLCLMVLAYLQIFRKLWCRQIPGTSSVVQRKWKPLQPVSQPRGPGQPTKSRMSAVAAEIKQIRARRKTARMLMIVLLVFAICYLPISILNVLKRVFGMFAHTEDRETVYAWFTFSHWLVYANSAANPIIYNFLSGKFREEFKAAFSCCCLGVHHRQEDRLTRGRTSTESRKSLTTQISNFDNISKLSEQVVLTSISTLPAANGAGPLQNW
Procedure, shortened: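 CHO-dhfr cells stably expressing hOX2R, loaded with Fluo-4 AM in HBSS/20 mM HEPES/0.1% BSA with probenecid, then given test compound. Calcium fluorescence was read for about 2 min 40 sec. Activity (%) was scaled between DMSO (0%) and 10 nM final human orexin A (100%).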

[2] = test system: cynomolgus monkeys; assay: Evaluation of wake-promoting effects in cynomolgus monkeys (EEG/EMG/EOG); format: in vivo; settings: Macaca fascicularis, sc, 4 h; 1 mg/kg, s.c., cynomolgus monkeys, administered at ZT12; read-out: Wakefulness time (% of vehicle treatment) (Mean, n = 1-2)
Experimental: The wake-promoting effects were evaluated by measuring the electroencephalogram (EEG), electromyogram (EMG) and electrooculogram (EOG) in cynomolgus monkeys. Under isoflurane anesthesia (1-5%, Pfizer Japan Inc., Tokyo, Japan), male cynomolgus monkeys (3-5 years old, Hamri Co., Ltd., Ibaraki, Japan) were surgically implanted with radio-telemetry transmitters (TL10M3-D70-EEE, Data Sciences International Inc., MN, USA). EEG leads were stereotaxically positioned at the parietal area and secured to the cranium with stainless-steel screws in contact with the dura. […] Bilateral EMG leads were implanted into the back cervical muscles. After the surgery, each monkey was given penicillin (100,000 units/head, i.m., Meiji Seika Pharma Co., Ltd., Tokyo, Japan), buprenorphine (0.02 mg/kg, i.m., Otsuka Pharmaceutical Co., Ltd., Tokyo, Japan) and prednisolone (1 mg/kg, s.c., Kyoritsu Seiyaku Co., Ltd., Tokyo, Japan) daily for one week. After at least a 1-month recovery period in home cages, the monkeys were habituated to the recording chamber (an acrylic cage 60W×55D×75H (cm)) located in a soundproof, electrically shielded room. After we confirmed that monkeys slept sufficiently in the experimental room, cortical EEG, EMG and EOG signals were recorded using Dataquest ART software (Data Sciences International Inc., MN, USA). The signals were semi automatically scored in 20 sec epochs by a sleep scoring system (SleepSign, Kissei Comtec Co., Ltd., Nagano, Japan). This preliminary scoring was visually inspected and corrected if necessary. Test compound (10 mg/kg, Table 4-1) suspended in 0.5% methylcellulose aqueous solution, or vehicle (i.e., 0.5% methylcellulose aqueous solution) was administered orally (p.o.) to monkeys at zeitgeber time 12 (ZT12) in a volume of 5 mL/kg body weight in a cross-over design. EEG, EMG and EOG recordings were performed for 4 h after the compound administration/treatments. The time spent in wakefulness for 4 h after administration (% of vehicle treatment) was calculated by using SleepSign. Test compound (1 mg/kg, Table 4-2) dissolved in a mixed solution comprising 5% DMSO, 5% Cremophor EL, 20% PEG400 and 70% soluplus (1% (w/v)), or vehicle (i.e., a mixed solution comprising 5% DMSO, 5% Cremophor EL, 20% PEG400 and 70% soluplus (1% (w/v))) was administered subcutaneously (s.c.) to monkeys at ZT12 in a volume of 0.5 mL/kg body weight in a pre-post design. EEG, EMG and EOG recordings were performed for 4 h after the compound administration/treatments. The time spent in wakefulness for 4 h after administration (% of vehicle treatment) was calculated by using SleepSign.

Row | SMILES | OX2R agonist activity (3 μM, %) [1] | response vs control in vivo at 1 mg/kg [2]
1 | COC1(C(=O)N2CC[C@H](NS(C)(=O)=O)[C@@H]2Cc2cccc(-c3cccc(F)c3)c2)CCC1 [Example 314, N-((2S,3S)-2-((3′-fluorobiphenyl-3-yl)methyl)-1-((1-methoxycyclobutyl)carbonyl)pyrrolidin-3-yl)methanesulfonamide] | 107% | 
2 | CS(=O)(=O)N[C@H]1CCN(C(=O)C2CCC2)[C@H]1Cc1csc(-c2cccc(F)c2)n1 (relative stereo) [Example 254, N-(cis-1-(cyclobutylcarbonyl)-2-((2-(3-fluorophenyl)-1,3-thiazol-4-yl)methyl)pyrrolidin-3-yl)methanesulfonamide] | 101% | 
3 | CCNC(=O)N1CCC[C@H](NS(C)(=O)=O)[C@@H]1Cc1ccccc1Oc1ccccc1 (relative stereo) [Example 62, cis-N-ethyl-3-((methylsulfonyl)amino)-2-(2-phenoxybenzyl)piperidine-1-carboxamide] | 93% | 
4 | CC(C)C(=O)N1CC[C@H](NS(C)(=O)=O)[C@@H]1Cc1cccc(-c2ccccc2)c1F (relative stereo) [Example 293, N-(cis-2-((2-fluorobiphenyl-3-yl)methyl)-1-isobutyrylpyrrolidin-3-yl)methanesulfonamide] | 102% | 
5 | COC(=O)N1CCC[C@H](NS(C)(=O)=O)[C@@H]1Cc1cccc(N2CCCC2)c1 (relative stereo) [Example 27, methyl cis-3-((methylsulfonyl)amino)-2-(3-(pyrrolidin-1-yl)benzyl)piperidine-1-carboxylate] | 66% | 
6 | CC(C)OC(=O)N1CCC[C@H](NS(C)(=O)=O)[C@@H]1Cc1cccc(-c2ccccc2)n1 (relative stereo) [Example 64, isopropyl cis-3-((methylsulfonyl)amino)-2-((6-phenylpyridin-2-yl)methyl)piperidine-1-carboxylate] | 96% | 
7 | CS(=O)(=O)N[C@H]1CCCN(C(=O)C2CC2)[C@H]1Cc1cccc(-c2ccccc2)c1 (relative stereo) [Example 93, N-(cis-2-(biphenyl-3-ylmethyl)-1-(cyclopropylcarbonyl)piperidin-3-yl)methanesulfonamide] | 101% | 
8 | CS(=O)(=O)N[C@H]1CCN(C(=O)C2(O)CCC2)[C@H]1Cc1cccc(-c2cccc(F)c2)c1 [Example 308, N-((2S,3S)-2-((3′-fluorobiphenyl-3-yl)methyl)-1-((1-hydroxycyclobutyl)carbonyl)pyrrolidin-3-yl)methanesulfonamide] | 107% | 
9 | CC1(C(=O)N2CC[C@H](NS(C)(=O)=O)[C@@H]2Cc2cccc(-c3cccc(F)c3)c2)CCC1 [Example 305, N-((2S,3S)-2-((3′-fluorobiphenyl-3-yl)methyl)-1-((1-methylcyclobutyl)carbonyl)pyrrolidin-3-yl)methanesulfonamide] | 105% | 

More lines, main results first:

Row | OX2R agonist activity (3 μM, %) [1] | SMILES | response vs control in vivo at 1 mg/kg [2]
10 | 103% | CCS(=O)(=O)N[C@H]1CCN(C(=O)N2CCC2)[C@H]1Cc1cccc(-c2cc(F)cc(F)c2)c1 [Example 362, N-((2S,3S)-1-(azetidin-1-ylcarbonyl)-2-((3′,5′-difluorobiphenyl-3-yl)methyl)pyrrolidin-3-yl)ethanesulfonamide] | 271%
11 | 104% | CCS(=O)(=O)N[C@H]1CCN(C(=O)N2CCC2)[C@H]1Cc1cccc(-c2ccccc2)c1 [Example 364, N-((2S,3S)-1-(azetidin-1-ylcarbonyl)-2-(biphenyl-3-ylmethyl)pyrrolidin-3-yl)ethanesulfonamide] | 375%
12 | 98% | CCS(=O)(=O)N[C@H]1CCN(C(=O)N2CCC2)[C@H]1Cc1cccc(-c2cccc(F)c2)c1F [Example 372, N-((2S,3S)-1-(azetidin-1-ylcarbonyl)-2-((2,3′-difluorobiphenyl-3-yl)methyl)pyrrolidin-3-yl)ethanesulfonamide] | 328%
13 | 103% | CN(C)C(=O)N1CC[C@H](NS(=O)(=O)N(C)C)[C@@H]1Cc1cccc(-c2cccc(F)c2)c1F [Example 377, (2S,3S)-2-((2,3′-difluorobiphenyl-3-yl)methyl)-3-((dimethylsulfamoyl)amino)-N,N-dimethylpyrrolidine-1-carboxamide] | 343%
14 | 106% | CCS(=O)(=O)N[C@H]1CCN(C(=O)N(C)OC)[C@H]1Cc1cccc(-c2cc(F)cc(F)c2)c1 [Example 477, (2S,3S)-2-[(3′,5′-difluoro[1,1′-biphenyl]-3-yl)methyl]-3-[(ethane-sulfonyl)amino]-N-methoxy-N-methylpyrrolidine-1-carboxamide] | 383%
15 | 104% | CCS(=O)(=O)N[C@H]1CCN(C(=O)C2(C)CCC2)[C@H]1Cc1csc(-c2cc(F)cc(F)c2)n1 (relative stereo) [Example 316, N-(cis-2-((2-(3,5-difluorophenyl)-1,3-thiazol-4-yl)methyl)-1-((1-methylcyclobutyl)carbonyl)pyrrolidin-3-yl)ethanesulfonamide] | 
16 | 101% | CCS(=O)(=O)N[C@H]1CCN(C(=O)C(C)(C)O)[C@H]1Cc1cccc(-c2cccc(Cl)c2)c1F [Example 431, N-((2S,3S)-2-((3′-chloro-2-fluorobiphenyl-3-yl)methyl)-1-(2-hydroxy-2-methylpropanoyl)pyrrolidin-3-yl)ethanesulfonamide] | 
17 | 109% | CCS(=O)(=O)N[C@H]1CCN(C(=O)N2CCC2)[C@H]1Cc1csc(-c2cc(F)cc(F)c2)n1 [Example 348, N-((2S,3S)-1-(azetidin-1-ylcarbonyl)-2-((2-(3,5-difluorophenyl)-1,3-thiazol-4-yl)methyl)pyrrolidin-3-yl)ethanesulfonamide] | 
18 | 87% | CS(=O)(=O)N[C@H]1CCN(C(=O)N2CC3(CC3)C2)[C@H]1Cc1cccc(-c2cccc(F)c2)c1 [Example 347, N-((2S,3S)-1-(5-azaspiro[2.3]hex-5-ylcarbonyl)-2-((3′-fluorobiphenyl-3-yl)methyl)pyrrolidin-3-yl)methanesulfonamide] | 
19 | 103% | CCS(=O)(=O)N[C@H]1CCN(C(=O)C2(O)CCC2)[C@H]1Cc1csc(-c2cc(F)cc(F)c2)n1 (relative stereo) [Example 317, N-(cis-2-((2-(3,5-difluorophenyl)-1,3-thiazol-4-yl)methyl)-1-((1-hydroxycyclobutyl)carbonyl)pyrrolidin-3-yl)ethanesulfonamide] | 
20 | 106% | CC(C)(O)C(=O)N1CC[C@H](NS(=O)(=O)CF)[C@@H]1Cc1cccc(-c2cc(F)cc(F)c2)c1 [Example 421, N-((2S,3S)-2-((3′,5′-difluorobiphenyl-3-yl)methyl)-1-(2-hydroxy-2-methylpropanoyl)pyrrolidin-3-yl)-1-fluoromethanesulfonamide] | 
21 | 101% | CC(C)(O)C(=O)N1CC[C@H](NS(=O)(=O)C(F)F)[C@@H]1Cc1cccc(-c2cc(F)cc(F)c2)c1F [Example 424, 1,1-difluoro-N-((2S,3S)-1-(2-hydroxy-2-methylpropanoyl)-2-((2,3′,5′-trifluorobiphenyl-3-yl)methyl)pyrrolidin-3-yl)methanesulfonamide] | 
